ChEMBL document CHEMBL3745637, “New hybrid molecules with anticonvulsant and antinociceptive activity derived from 3-methyl- or 3,3-dimethyl-1-[1-oxo-1-(4-phenylpiperazin-1-yl)propan-2-yl]pyrrolidine-2,5-diones” (Bioorg Med Chem, 2016)
Activity calls are given as the source filed them. No cut-off for these calls is given here.

Assays:
[1] = system: Mus musculus; test: Anticonvulsant activity in Swiss mouse assessed as protection against maximal electroshock-induced seizures at 300 mg/kg, ip pretreated for 0.25 hrs; assay type: functional, organism-based
[2] = system: Mus musculus; test: Anticonvulsant activity in Swiss mouse assessed as protection against maximal electroshock-induced seizures at 300 mg/kg, ip pretreated for 0.5 hrs; assay type: functional, organism-based
[3] = system: Mus musculus; test: Anticonvulsant activity in Swiss mouse assessed as protection against maximal electroshock-induced seizures at 300 mg/kg, ip pretreated for 1 hr; assay type: functional, organism-based
[4] = system: Mus musculus; test: Anticonvulsant activity in Swiss mouse assessed as protection against maximal electroshock-induced seizures at 300 mg/kg, ip pretreated for 2 hrs; assay type: functional, organism-based
[5] = system: Mus musculus; test: Anticonvulsant activity in Swiss mouse assessed as protection against maximal electroshock-induced seizures at 100 mg/kg, ip pretreated for 2 hrs; assay type: functional, organism-based
[6] = system: Mus musculus; test: Anticonvulsant activity against Swiss mouse seizure model assessed as protection at 100 mg/kg, ip pretreated for 0.25 hrs by 6 Hz psychomotor seizure test; assay type: functional, organism-based
[7] = system: Mus musculus; test: Anticonvulsant activity in ip dosed Swiss mouse assessed as reduction in clonic seizures at 0.5 hrs by subcutaneous pentylenetetrazole seizure test; assay type: functional
[8] = Protective index, ratio of TD50 for neurotoxicity in ip dosed Swiss mouse to ED50 for anticonvulsant activity in ip dosed MES Swiss mouse model at 0.25 hrs; assay type: toxicity, organism-based; conditions: in vivo, read-out: Ratio TD50/ED50
[9] = Protective index, ratio of TD50 for neurotoxicity in ip dosed Swiss mouse to ED50 for anticonvulsant activity in ip dosed Swiss mouse 6 Hz psychomotor seizure model at 0.25 hrs; assay type: toxicity, organism-based; conditions: in vivo, read-out: Ratio TD50/ED50
[10] = Neurotoxicity in ip dosed Swiss mouse seizure model assessed as motor impairment pretreated for 0.25 hrs measured within 60 s by chimney test; assay type: toxicity, organism-based; conditions: in vivo
[11] = system: Mus musculus; test: Antinociceptive activity in ip dosed Swiss mouse assessed as reduction of formalin-induced licking at MES ED50 pretreated for 0.25 hrs measured during 15 to 20 mins; assay type: functional; parameters: scale not given: the % may be the effect or the level left
[12] = system: Mus musculus; test: Antinociceptive activity in ip dosed Swiss mouse assessed as reduction of formalin-induced licking at MES ED50 pretreated for 0.25 hrs measured during 1 to 5 mins; assay type: functional; parameters: scale not given: the % may be the effect or the level left
[13] = system: Mus musculus; test: Anticonvulsant activity in Swiss mouse assessed as protection against maximal electroshock-induced seizures at 100 mg/kg, ip pretreated for 0.25 hrs; assay type: functional, organism-based
[14] = system: Mus musculus; test: Anticonvulsant activity in Swiss mouse assessed as reduction in clonic seizures at 100 mg/kg, ip pretreated for 2 hrs measured after 30 mins by subcutaneous pentylenetetrazole seizure test; assay type: functional, organism-based
[15] = system: Mus musculus; test: Anticonvulsant activity against Swiss mouse seizure model assessed as protection at 100 mg/kg, ip pretreated for 2 hrs by 6 Hz psychomotor seizure test; assay type: functional, organism-based
[16] = system: Mus musculus; test: Anticonvulsant activity against ip dosed Swiss mouse seizure model assessed as protection at 0.25 hrs by 6 Hz psychomotor seizure test; assay type: functional
[17] = system: Mus musculus; test: Anticonvulsant activity in ip dosed Swiss mouse assessed as protection against maximal electroshock-induced seizures at 0.25 hrs; assay type: functional
[18] = system: Mus musculus; test: Anticonvulsant activity in Swiss mouse assessed as protection against maximal electroshock-induced seizures at 100 mg/kg, ip pretreated for 0.5 hrs; assay type: functional, organism-based
[19] = system: Mus musculus; test: Anticonvulsant activity in Swiss mouse assessed as protection against maximal electroshock-induced seizures at 100 mg/kg, ip pretreated for 1 hr; assay type: functional, organism-based
[20] = system: Mus musculus; test: Anticonvulsant activity in ip dosed Swiss mouse assessed as reduction in clonic seizures at 0.25 hrs by subcutaneous pentylenetetrazole seizure test; assay type: functional
[21] = species: Rattus norvegicus; test: Displacement of [3H]nitrendipine from calcium channel L-Type dihydropyridine site in rat cerebral cortex at 100 uM after 120 mins by scintillation counting method; assay type: tissue-based
[22] = system: Mus musculus; test: Toxicity in Swiss mouse assessed as death at 300 mg/kg, ip measured after 0.25 hrs; assay type: organism-based; conditions: in vivo
[23] = species: Rattus norvegicus; test: Displacement of [3H]Batrachotoxinin from sodium channel site 2 in rat cerebral cortex at 100 uM after 60 mins by scintillation counting method; assay type: tissue-based
[24] = species: Rattus norvegicus; test: Displacement of [3H]Batrachotoxinin from sodium channel site 2 in rat cerebral cortex at 500 uM after 60 mins by scintillation counting method; assay type: tissue-based
[25] = system: Mus musculus; test: Anticonvulsant activity in ip dosed Swiss mouse assessed as protection against maximal electroshock-induced seizures at 0.5 hrs; assay type: functional
[26] = system: Mus musculus; test: Anticonvulsant activity against ip dosed Swiss mouse seizure model assessed as protection at 0.5 hrs by 6 Hz psychomotor seizure test; assay type: functional
[27] = Neurotoxicity in ip dosed Swiss mouse seizure model assessed as motor impairment pretreated for 0.5 hrs measured within 60 s by chimney test; assay type: toxicity, organism-based; conditions: in vivo
[28] = Protective index, ratio of TD50 for neurotoxicity in ip dosed Swiss mouse to ED50 for anticonvulsant activity in ip dosed Swiss mouse 6 Hz psychomotor seizure model at 0.5 hrs; assay type: toxicity, organism-based; conditions: in vivo, read-out: Ratio TD50/ED50
[29] = Protective index, ratio of TD50 for neurotoxicity in ip dosed Swiss mouse to ED50 for anticonvulsant activity in ip dosed MES Swiss mouse model at 0.5 hrs; assay type: toxicity, organism-based; conditions: in vivo, read-out: Ratio TD50/ED50

SMILES: CC(C(=O)N1CCN(C)CC1)N1C(=O)CC(C)(C)C1=O (centres undefined)
- Activity [1]: inactive
- Activity [2]: inactive
- Activity [3]: inactive
- Activity [4]: inactive

SMILES: CCC(C(=O)N1CCN(c2cccc(C(F)(F)F)c2)CC1)N1C(=O)CC(C)(C)C1=O (centres undefined)
- Activity [5]: inactive

SMILES: CC(C(=O)N1CCN(c2ccccc2F)CC1)N1C(=O)CC(C)(C)C1=O (centres undefined)
- Activity [1]: inactive
- Activity [2]: inactive
- Activity [3]: inactive
- Activity [4]: inactive

SMILES: CC(C(=O)N1CCN(c2ccc(Cl)c(Cl)c2)CC1)N1C(=O)CC(C)(C)C1=O (centres undefined)
- Activity [5]: inactive

SMILES: CC(C(=O)N1CCN(c2cccc(Cl)c2)CC1)N1C(=O)CC(C)(C)C1=O (centres undefined)
- Activity [6]: Active
- ED50 [7]: > 130 mg/kg
- selectivity ratio at 0.25 h [8]: 1.47
- selectivity ratio at 0.25 h [9]: 8.91
- TD50 at 0.25 h [10]: 176 mg/kg
- Activity [11]: 91%
- Activity [12]: 44%
- Activity [1]: Active
- Activity [2]: Active
- Activity [13]: Active
- Activity [5]: inactive
- Activity [14]: inactive
- Activity [15]: inactive
- ED50 [16]: 19.8 mg/kg
- ED50 [17]: 120 mg/kg

SMILES: CC1CC(=O)N(C(C)C(=O)N2CCN(c3ccc(F)cc3)CC2)C1=O (centres undefined)
- Activity [3]: inactive
- Activity [4]: inactive

SMILES: CC1CC(=O)N(C(C)C(=O)N2CCN(c3ccccc3)CC2)C1=O (centres undefined)
- Activity [18]: inactive
- Activity [19]: inactive
- Activity [5]: inactive

SMILES: CC(C(=O)N1CCN(c2cccc(F)c2)CC1)N1C(=O)CC(C)(C)C1=O (centres undefined)
- Activity [5]: inactive

SMILES: CC1CC(=O)N(C(C)C(=O)N2CCN(c3ccccc3Cl)CC2)C1=O (centres undefined)
- Activity [4]: inactive
- Activity [13]: inactive
- Activity [18]: inactive
- Activity [19]: inactive
- Activity [5]: inactive

SMILES: COc1cccc(N2CCN(C(=O)C(C)N3C(=O)CC(C)(C)C3=O)CC2)c1 (centres undefined)
- Activity [3]: inactive
- Activity [4]: inactive
- Activity [13]: inactive
- Activity [18]: inactive
- Activity [19]: inactive
- Activity [5]: inactive

SMILES: CC(C(=O)N1CCN(c2ccccc2Cl)CC1)N1C(=O)CC(C)(C)C1=O (centres undefined)
- Activity [1]: inactive
- Activity [4]: inactive

SMILES: CC1CC(=O)N(C(C)C(=O)N2CCN(c3cccc(F)c3)CC2)C1=O (centres undefined)
- Activity [3]: inactive
- Activity [4]: inactive
- Activity [18]: inactive
- Activity [19]: inactive
- Activity [5]: inactive

SMILES: CCC(C(=O)N1CCN(c2cccc(Cl)c2)CC1)N1C(=O)CC(C)C1=O (centres undefined)
- Activity [6]: Active
- selectivity ratio at 0.25 h [8]: 1.91
- selectivity ratio at 0.25 h [9]: 5.13
- TD50 at 0.25 h [10]: 223 mg/kg
- Activity [11]: 93%
- Activity [12]: inactive
- Activity [4]: inactive
- Activity [19]: inactive
- Activity [5]: inactive
- Activity [15]: inactive
- ED50 [16]: 43.5 mg/kg
- ED50 [17]: 117 mg/kg
- ED50 [20]: > 130 mg/kg

SMILES: CC1(C)O[C@@H]2[C@@H](CO[C@@]3(COS(N)(=O)=O)OC(C)(C)O[C@@H]23)O1
- inhibition [21]: 7.9%

SMILES: CC(C(=O)N1CCN(c2cccc(Cl)c2Cl)CC1)N1C(=O)CC(C)(C)C1=O (centres undefined)
- Activity [1]: inactive
- Activity [2]: inactive
- Activity [3]: inactive
- Activity [4]: inactive

SMILES: CC1CC(=O)N(C(C)C(=O)N2CCN(c3cccc(Cl)c3Cl)CC2)C1=O (centres undefined)
- Activity [1]: inactive
- Activity [2]: inactive
- Activity [3]: inactive
- Activity [4]: inactive

SMILES: CC(C(=O)N1CCN(c2ccc(F)cc2)CC1)N1C(=O)CC(C)(C)C1=O (centres undefined)
- Activity [1]: inactive
- Activity [4]: inactive

SMILES: CC1CC(=O)N(C(C)C(=O)N2CCN(c3ccc(C(F)(F)F)cc3)CC2)C1=O (centres undefined)
- Activity [1]: inactive
- Activity [22]: Toxic

SMILES: CC(C(=O)N1CCN(c2ccc(C(F)(F)F)cc2)CC1)N1C(=O)CC(C)(C)C1=O (centres undefined)
- Activity [1]: inactive
- Activity [22]: Toxic

SMILES: NC(=O)N1c2ccccc2C=Cc2ccccc21
- inhibition [23]: 17.4%
- inhibition [24]: 33.6%

SMILES: CC1CC(=O)N(C(C)C(=O)N2CCN(C)CC2)C1=O (centres undefined)
- Activity [1]: inactive
- Activity [2]: inactive
- Activity [3]: inactive
- Activity [4]: inactive

SMILES: CC(C(=O)N1CCN(c2ccccc2C(F)(F)F)CC1)N1C(=O)CC(C)(C)C1=O (centres undefined)
- Activity [1]: Active
- Activity [2]: Active
- Activity [19]: inactive
- Activity [5]: inactive
- ED50 [17]: > 130 mg/kg

SMILES: CC1CC(=O)N(C(C)C(=O)N2CCN(c3ccccc3C(F)(F)F)CC2)C1=O (centres undefined)
- Activity [1]: Active
- Activity [4]: inactive
- Activity [5]: inactive

SMILES: CC1CC(=O)N(CC(=O)N2CCN(c3cccc(C(F)(F)F)c3)CC2)C1=O (centres undefined)
- ED50 [7]: > 200 mg/kg
- ED50 [25]: 80.6 mg/kg
- ED50 [26]: 52.3 mg/kg
- TD50 at 0.5 h [27]: 225 mg/kg

SMILES: CC1CC(=O)N(C(C)C(=O)N2CCN(c3ccccc3F)CC2)C1=O (centres undefined)
- Activity [3]: inactive
- Activity [4]: inactive
- Activity [18]: inactive
- Activity [19]: inactive
- Activity [5]: inactive

SMILES: CC(C(=O)N1CCN(c2ccccc2)CC1)N1C(=O)CC(C)(C)C1=O (centres undefined)
- Activity [1]: Active
- Activity [2]: Active
- Activity [4]: inactive
- Activity [19]: inactive
- Activity [5]: inactive
- ED50 [17]: > 130 mg/kg

SMILES: Cc1cccc(N2CCN(C(=O)C(C)N3C(=O)CC(C)C3=O)CC2)c1 (centres undefined)
- selectivity ratio at 0.25 h [8]: 1.73
- TD50 at 0.25 h [10]: 210 mg/kg
- Activity [1]: Active
- Activity [2]: Active
- Activity [4]: inactive
- Activity [19]: inactive
- Activity [5]: inactive
- ED50 [17]: 122 mg/kg

SMILES: CC1CC(=O)N(C(C)C(=O)N2CCN(c3ccc(Cl)c(Cl)c3)CC2)C1=O (centres undefined)
- Activity [19]: inactive
- Activity [5]: inactive

SMILES: COC[C@@H](NC(C)=O)C(=O)NCc1ccccc1 [LACOSAMIDE]
- ED50 [7]: > 500 mg/kg
- ED50 [25]: 9.4 mg/kg
- selectivity ratio at 0.5 h [28]: 5.26
- ED50 [26]: 6.4 mg/kg
- selectivity ratio at 0.5 h [29]: 3.6

SMILES: COc1cccc(N2CCN(C(=O)C(C)N3C(=O)CC(C)C3=O)CC2)c1 (centres undefined)
- Activity [18]: inactive
- Activity [19]: inactive
- Activity [5]: inactive

SMILES: CCC(C(=O)N1CCN(c2cccc(Cl)c2)CC1)N1C(=O)CC(C)(C)C1=O (centres undefined)
- Activity [13]: inactive
- Activity [18]: inactive
- Activity [19]: inactive
- Activity [5]: inactive

SMILES: Cc1cccc(N2CCN(C(=O)C(C)N3C(=O)CC(C)(C)C3=O)CC2)c1 (centres undefined)
- Activity [4]: inactive
- Activity [13]: inactive
- Activity [18]: inactive
- Activity [19]: inactive
- Activity [5]: inactive

SMILES: CC1CC(=O)N(C(C)C(=O)N2CCN(c3ccc(Cl)cc3)CC2)C1=O (centres undefined)
- Activity [4]: inactive
